Assay results taken from patent publication US20060089390A1, “3-benzoyl-2,4,5-substituted pyridine derivatives or salts thereof and bactericides containing the same” (Ishihara Sangyo Kaisha, Ltd., priority 2002, published 2006).
Read-outs that look alike come from different tables or passages of the source.

Legend:
rice blast = assay: whole plant or invertebrate; assay type: in vivo, Rice (cultivar: Nihonbare); settings: Pyricularia oryzae, foliar, read-out: controlling effects as compared with non-treated cases (number of lesions)
wheat powdery mildew = assay: Test on preventive effect against wheat powdery mildew; assay type: in vivo, Wheat (cultivar: Norin-61-go); settings: Triticum aestivum, foliar spray before inoculation, examined 6 to 8 days after inoculation, read-out: controlling effects as compared with non-treated cases (area of sporogony)
Method: Tests on Preventive Effect Against Wheat Powdery Mildew Wheat (cultivar: […] After the drug solution dried, the wheat was inoculated by spreading with conidiospore of fungi of powdery mildew, and the wheat was kept in a thermostatic chamber at 20° C. From 6 to 8 days after the inoculation, the area of sporogony was examined.

cucumber powdery mildew [1] = assay: Test on preventive effect against cucumber powdery mildew; assay type: in vivo, Cucumber (cultivar: Suyo); settings: Cucumis sativus, foliar spray before inoculation, examined 6 to 11 days after inoculation, read-out: controlling effects as compared with non-treated cases (area of sporogony)
Method: Test on Preventive Effect Against Cucumber Powdery Mildew Cucumber (cultivar: […] After the drug solution dried, the cucumber was sprayed and inoculated with a conidiospore suspension of fungi of powdery mildew, and the cucumber was kept in a thermostatic chamber at 20° C. From 6 to 11 days after the inoculation, the area of sporogony was examined.

cucumber powdery mildew [2] = assay: Test on rainfastness of effect against cucumber powdery mildew; assay type: in vivo, Cucumber (cultivar: Suyo); settings: Cucumis sativus, topical, 500 gai/ha
Method: Cucumber (cultivar: […] A day after the treatment, 10 mm/hr of artificial rainfall was applied for 1 hour. Together with seedlings not subjected to rainfall treatment (preventive), the cucumber was sprayed and inoculated with a conidiospore suspension of fungi of powdery mildew, and the cucumber was kept in a thermostatic chamber at 20° C. From 6 to 11 days after the inoculation, the number of lesions was examined, and the controlling rate was calculated by comparison with the non-treated cases. The results are shown in Table 5.

[3] = 10 mm/hr artificial rainfall for 1 hour a day after treatment, read-out: Controlling rate of cucumber powdery mildew (%) Rainfall
[4] = no rainfall treatment (preventive), read-out: Controlling rate of cucumber powdery mildew (%) Preventive

CCc1c(Cl)cnc(OC)c1C(=O)c1c(C)cc(OC)c(OC)c1OC [1-2, 3-(2,3,4-trimethoxy-6-methylbenzoyl)-5-chloro-4-ethyl-2-methoxypyridine]
pest or weed control at 500 ppm (rice blast): ≥ 90% | pest or weed control at 125 ppm (wheat powdery mildew): ≥ 90% | pest or weed control at 125 ppm (cucumber powdery mildew [1]): ≥ 90%

CCOc1cc(C(=O)c2c(OC)ncc(Cl)c2Cl)c(C)cc1OC [1-4, 3-(5-ethoxy-4-methoxy-2-methylbenzoyl)-4,5-dichloro-2-methoxypyridine]
pest or weed control at 125 ppm (wheat powdery mildew): ≥ 90% | pest or weed control at 125 ppm (cucumber powdery mildew [1]): ≥ 90%

CCOc1ncc(Cl)c(Br)c1C(=O)c1c(C)cc(OC)c(OC)c1OC [1-5, 3-(2,3,4-trimethoxy-6-methylbenzoyl)-4-bromo-5-chloro-2-ethoxypyridine]
pest or weed control at 125 ppm (wheat powdery mildew): ≥ 90% | pest or weed control at 125 ppm (cucumber powdery mildew [1]): ≥ 90%

CCOc1ncc(Cl)c(C)c1C(=O)c1c(C)cc(OC)c(OC)c1OC [1-6, 3-(2,3,4-trimethoxy-6-methylbenzoyl)-5-chloro-2-ethoxy-4-methylpyridine]
pest or weed control at 125 ppm (wheat powdery mildew): ≥ 90%

CCOc1ncc(Br)c(Cl)c1C(=O)c1c(C)cc(OC)c(OC)c1OC [1-7, 3-(2,3,4-trimethoxy-6-methylbenzoyl)-5-bromo-4-chloro-2-ethoxypyridine]
pest or weed control at 125 ppm (wheat powdery mildew): ≥ 90% | pest or weed control at 125 ppm (cucumber powdery mildew [1]): ≥ 90%

COc1cc(C)c(C(=O)c2c(OC)ncc(Cl)c2SC)c(OC)c1OC [1-10, 3-(2,3,4-trimethoxy-6-methylbenzoyl)-5-chloro-2-methoxy-4-methylthiopyridine]
pest or weed control at 125 ppm (wheat powdery mildew): ≥ 90% | pest or weed control at 125 ppm (cucumber powdery mildew [1]): ≥ 90%

COc1cc(C)c(C(=O)c2c(OC)ncc(Cl)c2OC)c(OC)c1OC [1-11, 3-(2,3,4-trimethoxy-6-methylbenzoyl)-5-chloro-2,4-dimethoxypyridine]
melting point: 93 to 94 °C | pest or weed control at 125 ppm (wheat powdery mildew): ≥ 90% | pest or weed control at 125 ppm (cucumber powdery mildew [1]): ≥ 90%

COc1cc(C)c(C(=O)c2c(OC)ncc(Br)c2Br)c(OC)c1OC [1-12, 3-(2,3,4-trimethoxy-6-methylbenzoyl)-4,5-dibromo-2-methoxypyridine]
pest or weed control at 500 g/ha (cucumber powdery mildew [2]; [3]): 68% | pest or weed control at 500 g/ha (cucumber powdery mildew [2]; [4]): 100% | pest or weed control at 125 ppm (wheat powdery mildew): ≥ 90% | pest or weed control at 125 ppm (cucumber powdery mildew [1]): ≥ 90%

COc1cc(C)c(C(=O)c2c(OC)ncc(C)c2Br)c(OC)c1OC [1-13, 3-(2,3,4-trimethoxy-6-methylbenzoyl)-4-bromo-2-methoxy-5-methylpyridine]
pest or weed control at 125 ppm (wheat powdery mildew): ≥ 90% | pest or weed control at 125 ppm (cucumber powdery mildew [1]): ≥ 90%

COc1cc(C)c(C(=O)c2c(OC)ncc(Br)c2C(F)(F)F)c(OC)c1OC [1-14, 3-(2,3,4-trimethoxy-6-methylbenzoyl)-5-bromo-4-trifluoromethyl-2-methoxypyridine]
pest or weed control at 500 g/ha (cucumber powdery mildew [2]; [3]): 100% | pest or weed control at 500 g/ha (cucumber powdery mildew [2]; [4]): 100% | pest or weed control at 125 ppm (wheat powdery mildew): ≥ 90% | pest or weed control at 125 ppm (cucumber powdery mildew [1]): ≥ 90%

COc1cc(C)c(C(=O)c2c(Cl)ncc(C)c2Cl)c(OC)c1OC [1-16, 3-(2,3,4-trimethoxy-6-methylbenzoyl)-2,4-dichloro-5-methylpyridine]
melting point: 78 to 80 °C | pest or weed control at 500 ppm (rice blast): ≥ 90% | pest or weed control at 125 ppm (wheat powdery mildew): ≥ 90% | pest or weed control at 125 ppm (cucumber powdery mildew [1]): ≥ 90%

COc1cc(C)c(C(=O)c2c(Cl)ncc(I)c2Cl)c(OC)c1OC [1-17, 3-(2,3,4-trimethoxy-6-methylbenzoyl)-2,4-dichloro-5-iodopyridine]
pest or weed control at 500 ppm (rice blast): ≥ 90% | pest or weed control at 125 ppm (wheat powdery mildew): ≥ 90%

COc1cc(C)c(C(=O)c2c(F)ncc(C)c2I)c(OC)c1OC [1-18, 3-(2,3,4-trimethoxy-6-methylbenzoyl)-2-fluoro-4-iodo-5-methylpyridine]
melting point: 140 to 141 °C | pest or weed control at 125 ppm (wheat powdery mildew): ≥ 90%

COc1cc(C)c(C(=O)c2c(F)ncc(C)c2C)c(OC)c1OC [1-19, 3-(2,3,4-trimethoxy-6-methylbenzoyl)-2-fluoro-4,5-dimethylpyridine]
melting point: 91 to 92 °C | pest or weed control at 125 ppm (wheat powdery mildew): ≥ 90%

COc1cc(C)c(C(=O)c2c(OC)ncc(C)c2C)c(OC)c1OC [1-20, 3-(2,3,4-trimethoxy-6-methylbenzoyl)-2-methoxy-4,5-dimethylpyridine]
melting point: 84 to 86 °C | pest or weed control at 125 ppm (wheat powdery mildew): ≥ 90%

CCOc1ncc(C)c(C)c1C(=O)c1c(C)cc(OC)c(OC)c1OCC [1-21, 3-(2-ethoxy-3,4-dimethoxy-6-methylbenzoyl)-2-ethoxy-4,5-dimethylpyridine]
pest or weed control at 125 ppm (wheat powdery mildew): ≥ 90% | pest or weed control at 125 ppm (cucumber powdery mildew [1]): ≥ 90%

COc1cc(C)c(C(=O)c2c(SC)ncc(C)c2C)c(OC)c1OC [1-22, 3-(2,3,4-trimethoxy-6-methylbenzoyl)-4,5-dimethyl-2-methylthiopyridine]
pest or weed control at 500 ppm (rice blast): ≥ 90% | pest or weed control at 125 ppm (wheat powdery mildew): ≥ 90% | pest or weed control at 125 ppm (cucumber powdery mildew [1]): ≥ 90%

COc1cc(C)c(C(=O)c2c(OC)ncc(Br)c2Cl)c(OC)c1OC [1-23, 3-(2,3,4-trimethoxy-6-methylbenzoyl)-5-bromo-4-chloro-2-methoxypyridine]
pest or weed control at 500 g/ha (cucumber powdery mildew [2]; [3]): 100% | pest or weed control at 500 g/ha (cucumber powdery mildew [2]; [4]): 100% | pest or weed control at 500 ppm (rice blast): ≥ 90% | pest or weed control at 125 ppm (wheat powdery mildew): ≥ 90% | pest or weed control at 125 ppm (cucumber powdery mildew [1]): ≥ 90%

COc1cc(C)c(C(=O)c2c(OC)ncc(C)c2Cl)c(OC)c1OC [1-24, 3-(2,3,4-trimethoxy-6-methylbenzoyl)-4-chloro-2-methoxy-5-methylpyridine]
pest or weed control at 500 g/ha (cucumber powdery mildew [2]; [3]): 85% | pest or weed control at 500 g/ha (cucumber powdery mildew [2]; [4]): 100% | pest or weed control at 500 ppm (rice blast): ≥ 90% | pest or weed control at 125 ppm (wheat powdery mildew): ≥ 90% | pest or weed control at 125 ppm (cucumber powdery mildew [1]): ≥ 90%

COc1cc(C)c(C(=O)c2c(OC)ncc(Br)c2C)c(OC)c1OC [1-36, 3-(2,3,4-trimethoxy-6-methylbenzoyl)-5-bromo-2-methoxy-4-methylpyridine]
pest or weed control at 125 ppm (wheat powdery mildew): ≥ 90% | pest or weed control at 125 ppm (cucumber powdery mildew [1]): ≥ 90%

COc1cc(C)c(C(=O)c2c(OC)cnc(Cl)c2C)c(OC)c1OC [2-1, 4-(2,3,4-trimethoxy-6-methylbenzoyl)-2-chloro-5-methoxy-3-methylpyridine, reference compound]
pest or weed control at 500 g/ha (cucumber powdery mildew [2]; [3]): 0% | pest or weed control at 500 g/ha (cucumber powdery mildew [2]; [4]): 100% | pest or weed control at 125 ppm (wheat powdery mildew): ≥ 90% | pest or weed control at 125 ppm (cucumber powdery mildew [1]): ≥ 90%

COc1cc(C)c(C(=O)c2c(OC)cnc(C)c2C(F)(F)F)c(OC)c1OC [2-2, 4-(2,3,4-trimethoxy-6-methylbenzoyl)-3-trifluoromethyl-5-methoxy-2-methylpyridine, reference compound]
pest or weed control at 500 g/ha (cucumber powdery mildew [2]; [3]): 35% | pest or weed control at 500 g/ha (cucumber powdery mildew [2]; [4]): 100% | pest or weed control at 125 ppm (wheat powdery mildew): ≥ 90% | pest or weed control at 125 ppm (cucumber powdery mildew [1]): ≥ 90%

COc1cc(C)c(C(=O)c2c(OC)cnc(Br)c2C)c(OC)c1OC [2-3, 4-(2,3,4-trimethoxy-6-methylbenzoyl)-2-bromo-5-methoxy-3-methylpyridine, reference compound]
pest or weed control at 500 g/ha (cucumber powdery mildew [2]; [3]): 0% | pest or weed control at 500 g/ha (cucumber powdery mildew [2]; [4]): 100% | pest or weed control at 500 ppm (rice blast): ≥ 90% | pest or weed control at 125 ppm (wheat powdery mildew): ≥ 90% | pest or weed control at 125 ppm (cucumber powdery mildew [1]): ≥ 90%

COc1cc(C)c(C(=O)c2c(OC)cnc(C)c2Cl)c(OC)c1OC [2-4, 4-(2,3,4-trimethoxy-6-methylbenzoyl)-3-chloro-5-methoxy-2-methylpyridine, reference compound]
pest or weed control at 500 g/ha (cucumber powdery mildew [2]; [3]): 35% | pest or weed control at 500 g/ha (cucumber powdery mildew [2]; [4]): 92.5% | pest or weed control at 125 ppm (wheat powdery mildew): ≥ 90%

COc1cc(C)c(C(=O)c2c(OC)ccnc2OC)c(OC)c1OC [2-5, 3-(2,3,4-trimethoxy-6-methylbenzoyl)-2,4-dimethoxypyridine, reference compound]
pest or weed control at 500 g/ha (cucumber powdery mildew [2]; [3]): 0% | pest or weed control at 500 g/ha (cucumber powdery mildew [2]; [4]): 95% | pest or weed control at 125 ppm (wheat powdery mildew): ≥ 90%

COc1cc(C)c(C(=O)c2c(OC)cnc(Cl)c2Cl)c(OC)c1OC [2-6, 4-(2,3,4-trimethoxy-6-methylbenzoyl)-2,3-dichloro-5-methoxypyridine, reference compound]
pest or weed control at 500 g/ha (cucumber powdery mildew [2]; [3]): 0% | pest or weed control at 500 g/ha (cucumber powdery mildew [2]; [4]): 90% | pest or weed control at 125 ppm (wheat powdery mildew): ≥ 90% | pest or weed control at 125 ppm (cucumber powdery mildew [1]): ≥ 90%

COc1cc(C)c(C(=O)c2c(OC)ncc(Cl)c2C)c(OC)c1OC [Compound No. 1-35, 3-(2,3,4-trimethoxy-6-methylbenzoyl)-5-chloro-2-methoxy-4-methylpyridine]
pest or weed control at 500 g/ha (cucumber powdery mildew [2]; [3]): 100% | pest or weed control at 500 g/ha (cucumber powdery mildew [2]; [4]): 100% | pest or weed control at 500 ppm (rice blast): ≥ 90% | pest or weed control at 125 ppm (wheat powdery mildew): ≥ 90% | pest or weed control at 125 ppm (cucumber powdery mildew [1]): ≥ 90%

COc1cc(C)c(C(=O)c2c(OC)ncc(C)c2C(F)(F)F)c(OC)c1OC [Compound No. 1-37, 3-(2,3,4-trimethoxy-6-methylbenzoyl)-4-trifluoromethyl-2-methoxy-5-methylpyridine]
pest or weed control at 500 g/ha (cucumber powdery mildew [2]; [3]): 100% | pest or weed control at 500 g/ha (cucumber powdery mildew [2]; [4]): 100% | pest or weed control at 125 ppm (wheat powdery mildew): ≥ 90% | pest or weed control at 125 ppm (cucumber powdery mildew [1]): ≥ 90%
